{"source": "patent US7109207B2", "about": "“Spirosubstituted piperidines as selective melanin concentrating hormone receptor antagonists for the treatment of obesity” (Schering Corporation, priority 2002, dated 2006)", "data": [{"target": "T1, MCH receptor (Homo sapiens, UniProt Q99705)", "T1 construct": "expressed in transfected cells; host or cells: CHO cells", "T1 sequence (Q99705 whole entry)": "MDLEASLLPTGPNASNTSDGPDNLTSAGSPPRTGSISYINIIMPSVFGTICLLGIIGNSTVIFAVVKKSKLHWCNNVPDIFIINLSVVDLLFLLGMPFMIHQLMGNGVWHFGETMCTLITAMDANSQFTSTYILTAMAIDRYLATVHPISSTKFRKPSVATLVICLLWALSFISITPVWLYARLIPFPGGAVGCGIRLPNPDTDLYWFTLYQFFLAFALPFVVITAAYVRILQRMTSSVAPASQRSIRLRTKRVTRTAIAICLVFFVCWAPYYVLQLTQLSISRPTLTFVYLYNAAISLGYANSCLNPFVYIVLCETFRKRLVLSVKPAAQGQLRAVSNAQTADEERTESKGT", "test": "MCH Receptor Binding Assay ([125I]-MCH, SPA, membranes from CHO cells expressing the MCH receptor)", "details": "CHO cell membranes, read-out: Activity (Ki class)", "experimental": "(§1) MCH Receptor Binding Assay:\n(§2) Membranes from CHO cells expressing the MCH receptor were prepared by lysing cells with 5 mM HEPES for 15 min at 4C. Cell lysates were centrifuged ([…], 15 min) and the pellet was resuspended in 5 mM HEPES. For each 96-well plate (Microlite, Dynex Technologies), 1 mg of cell membranes were incubated with 10 mg of wheat germ agglutinin SPA beads (Amersham) for 5 min at 4 C in a volume of 10 ml of binding buffer (25 mM HEPES, 10 mM MGCl2, 10 mM NaCl, 5 mM MnCl2, 0.1% BSA). The membrane/bead mixture was centrifuged (1500×g, 3.5 min), the supernatant was aspirated, and the pellet was resuspended in 10 ml binding buffer. The centrifugation, aspiration and resuspension were then repeated. The membrane/bead mixture (100 μl) was then added to 96-well plates containing 50 μof 500 pM [^125I]-MCH (NEN) and […] of the appropriate concentration of compound (4× the desired final concentration). Nonspecific binding was determined by including 1 μM MCH in the binding reaction. The binding reaction was incubated at room temperature for 2 h. Plates were then analyzed in a TOPCOUNT microplate scintillation counter (Packard). Data was analyzed and Ki values were determined using GraphPad Prism.", "units": {"Ki": "nM"}, "values": [{"smiles": "CC(=O)N1CCC2(CC1)c1ccc(-c3cccc(C#N)c3)cc1CCN2CC(=O)Nc1cc(Cl)cc(Cl)c1", "note": "[Compound 30b]", "Ki": "> 100"}, {"smiles": "N#Cc1cccc(-c2ccc3c(c2)CCN(CC(=O)Nc2cc(Cl)cc(Cl)c2)C32CCN(C3CCSC3)CC2)c1", "note": "(stereo not shown) [Compound 11j]", "Ki": "30 to 100"}, {"smiles": "N#Cc1cccc(-c2ccc3c(c2)CCN(CC(=O)Nc2ccc(F)c(Cl)c2)C32CCN(CC3CC3)CC2)c1", "note": "[Compound 8a]", "Ki": "< 30"}, {"smiles": "N#Cc1cccc(-c2ccc3c(c2)CCN(CC(=O)Nc2ccc(Cl)cc2)C32CCN(CC3CC3)CC2)c1", "note": "[Compound 8b]", "Ki": "> 100"}, {"smiles": "N#Cc1cccc(-c2ccc3c(c2)CCN(CC(=O)Nc2cc(Cl)cc(Cl)c2)C32CCN(C3CCCCCC3)CC2)c1", "note": "[Compound 11a]", "Ki": "< 30"}, {"smiles": "N#Cc1cccc(-c2ccc3c(c2)CCN(CC(=O)Nc2cccc(Cl)c2)C32CCN(CC3CC3)CC2)c1", "note": "[Compound 8c]", "Ki": "30 to 100"}, {"smiles": "CC(C)(C)OC(=O)N1CCC2(CC1)c1ccc(-c3cccc(C#N)c3)cc1CCN2CC(=O)Nc1cc(Cl)cc(Cl)c1", "note": "[Compound 30a]", "Ki": "> 100"}, {"smiles": "N#Cc1cccc(-c2ccc3c(c2)CCN(CC(=O)Nc2cc(Cl)cc(Cl)c2)C32CCN(CCO)CC2)c1", "note": "[Compound 11e]", "Ki": "30 to 100"}, {"smiles": "CC(C)N1CCC2(CC1)c1ccc(-c3cccc(C#N)c3)cc1CCN2CC(=O)Nc1ccc(F)c(Cl)c1", "note": "[Compound 7b]", "Ki": "30 to 100"}, {"smiles": "CN(C)S(=O)(=O)N1CCC2(CC1)c1ccc(-c3cccc(C#N)c3)cc1CCN2CC(=O)Nc1cc(Cl)cc(Cl)c1", "note": "[Compound 30d]", "Ki": "> 100"}, {"smiles": "CC(C)N1CCC2(CC1)c1ccc(-c3cccc(C#N)c3)cc1CCN2CC(=O)Nc1cc(F)cc(F)c1", "note": "[Compound 7c]", "Ki": "30 to 100"}, {"smiles": "N#Cc1cccc(-c2ccc3c(c2)CCN(CC(=O)Nc2cc(Cl)cc(Cl)c2)C32CCN(C3CCC3)CC2)c1", "note": "[Compound 11b]", "Ki": "< 30"}, {"smiles": "N#Cc1cccc(-c2ccc3c(c2)CCN(CC(=O)Nc2cc(Cl)cc(Cl)c2)C32CCN(CC3CC3)CC2)c1", "note": "[Compound 11c]", "Ki": "< 30"}, {"smiles": "N#Cc1cccc(-c2ccc3c(c2)CCN(CC(=O)Nc2ccc(F)c(F)c2)C32CCN(CC3CC3)CC2)c1", "note": "[Compound 8d]", "Ki": "30 to 100"}, {"smiles": "N#Cc1cccc(-c2ccc3c(c2)CCN(CC(=O)Nc2cc(Cl)cc(Cl)c2)C32CCN(Cc3ccoc3)CC2)c1", "note": "[Compound 11i]", "Ki": "30 to 100"}, {"smiles": "CC(C)N1CCC2(CC1)c1ccc(-c3cccc(C#N)c3)cc1CCN2CC(=O)Nc1ccc(Cl)c(Cl)c1", "note": "[Compound 7e]", "Ki": "> 100"}, {"smiles": "N#Cc1cccc(-c2ccc3c(c2)CCN(CC(=O)Nc2cc(Cl)cc(Cl)c2)C32CCN(C3CCOCC3)CC2)c1", "note": "[Compound 11h]", "Ki": "< 30"}, {"smiles": "N#Cc1cccc(-c2ccc3c(c2)CCN(CC(=O)Nc2cc(Cl)cc(Cl)c2)C32CCNCC2)c1", "note": "[Compound 10c]", "Ki": "30 to 100"}, {"smiles": "N#Cc1cccc(-c2ccc3c(c2)CCN(CC(=O)Nc2ccc(F)c(C(F)(F)F)c2)C32CCN(CC3CC3)CC2)c1", "note": "[Compound 8e]", "Ki": "< 30"}, {"smiles": "CC(C)N1CCC2(CC1)c1ccc(-c3cccc(C#N)c3)cc1CCN2CC(=O)Nc1cc(Cl)cc(Cl)c1", "note": "[Compound 7a]", "Ki": "< 30"}, {"smiles": "N#Cc1cccc(-c2ccc3c(c2)CCN(CC(=O)Nc2cc(Cl)cc(Cl)c2)C32CCN(C3CCCC3)CC2)c1", "note": "[Compound 11d]", "Ki": "< 30"}, {"smiles": "CN1CCC2(CC1)c1ccc(-c3cccc(C#N)c3)cc1CCN2CC(=O)Nc1cc(Cl)cc(Cl)c1", "note": "[Compound 11f]", "Ki": "30 to 100"}, {"smiles": "CC(C)N1CCC2(CC1)c1ccc(-c3cccc(C#N)c3)cc1CCN2CC(=O)Nc1ccc(Cl)c(C(F)(F)F)c1", "note": "[Compound 7d]", "Ki": "> 100"}, {"smiles": "N#Cc1cccc(-c2ccc3c(c2)CCN(Cc2nc4cc(Cl)c(Cl)cc4[nH]2)C32CCN(CC3CC3)CC2)c1", "note": "[Compound 12f]", "Ki": "> 100"}, {"smiles": "CS(=O)(=O)N1CCC2(CC1)c1ccc(-c3cccc(C#N)c3)cc1CCN2CC(=O)Nc1cc(Cl)cc(Cl)c1", "note": "[Compound 30c]", "Ki": "> 100"}, {"smiles": "N#Cc1cccc(-c2ccc3c(c2)CCN(Cc2nc4cc(Cl)c(Cl)cc4[nH]2)C32CCNCC2)c1", "note": "[Compound 12d]", "Ki": "> 100"}, {"smiles": "N#Cc1cccc(-c2ccc3c(c2)CCN(CC(=O)Nc2cc(F)cc(F)c2)C32CCN(CC3CC3)CC2)c1", "note": "[Compound 8g]", "Ki": "30 to 100"}, {"smiles": "CCN1CCC2(CC1)c1ccc(-c3cccc(C#N)c3)cc1CCN2CC(=O)Nc1cc(Cl)cc(Cl)c1", "note": "[Compound 11g]", "Ki": "30 to 100"}, {"smiles": "N#Cc1cccc(-c2ccc3c(c2)CCN(CC(=O)Nc2cc(F)cc(C(F)(F)F)c2)C32CCN(CC3CC3)CC2)c1", "note": "[Compound 8f]", "Ki": "30 to 100"}, {"smiles": "N#Cc1cccc(-c2ccc3c(c2)CCN(CC(=O)Nc2ccc(Cl)c(Cl)c2)C32CCN(CC3CC3)CC2)c1", "note": "[Compound 8h]", "Ki": "> 100"}, {"smiles": "CC(C)N1CCC2(CC1)c1ccc(-c3cccc(C#N)c3)cc1CCN2Cc1nc2ccccc2[nH]1", "note": "[Compound 12a]", "Ki": "> 100"}, {"smiles": "N#Cc1cccc(-c2ccc3c(c2)CCN(CC(=O)Nc2ccc(Cl)c(C(F)(F)F)c2)C32CCN(CC3CC3)CC2)c1", "note": "[Compound 8i]", "Ki": "> 100"}, {"smiles": "N#Cc1cccc(-c2ccc3c(c2)CCN(Cc2nc4cc(F)c(Cl)cc4[nH]2)C32CCNCC2)c1", "note": "[Compound 12e]", "Ki": "> 100"}]}, {"target": "T1, MCH receptor", "test": "MCH Receptor Binding Assay ([125I]-MCH, SPA, membranes from CHO cells expressing the MCH receptor)", "details": "CHO cell membranes, read-out: Ki value", "experimental": "as §1, §2", "units": {"Ki": "nM"}, "values": [{"smiles": "N#Cc1cccc(-c2ccc3c(c2)CCN(CC(=O)Nc2cc(Cl)cc(Cl)c2)C32CCN(C3CCCCCC3)CC2)c1", "note": "[Compound 11a]", "Ki": 11}]}]}
